Test results as given in patent US20080050759A1, “Screening Assay for Anti-Bacterial Compounds” (Bayer Healthcare AG, priority 2003, published 2008).
≈ marks a conversion by molar mass, not a printed value. Like-named read-outs stand apart in the source and are kept apart here.

Assays:
[1] = system: S30 extracts from S. aureus 133; test: Gram-positive in vitro coupled transcription/translation (T/T) assay, S. aureus S30 extract; type: biochemical
Method: A procedure similar to the preparation of S30 extracts described by Murray et. al. (2) was used for S. aureus. Brain heart infusion (BHI) medium (6 l) was inoculated with 250 ml overnight culture of S. aureus 133 grown in BHI at 37° C. with agitation (170 rpm). Cells were cultured at 37° C. until an OD595nm of 2.5 was reached prior to centrifugation at 6000×g for 15 min at 4° C. Pellets were washed once with 500 ml cold S30-buffer A (10 mM Tris-acetate pH 8.0, 14 mM Mg-acetate, 1 mM DTT, 1 M KCl) and once with 250 ml of cold S30-buffer A containing 50 mM KCl. Pellets were frozen for 1 h at −20° C. or overnight at −70° C., thawed on ice and resuspended to a final volume of 99 ml buffer B (10 mM Tris-acetate pH 8.0, 20 mM Mg-acetate, 1 mM DTT, 50 mM KCl). A 1.5 ml aliquote of lysostaphin (0.8 mg/ml) in buffer B was added to each of three centrifuge tubes and 33 ml of the cell suspension were added. Samples were incubated at 37° C. for 1 h with gentle agitation prior to the addition of 150 μl 0.5 M DTT. Lysed cells were centrifuged for 30 min at 30,000×g at 4° C. and the resulting pellet was washed once with 33 ml S30-buffer B. The pooled supernatants were recentrifuged at 30,000×g for 30 min at 4° C. 100 ml of the supernatant were incubated with 25 ml preincubation buffer (670 mM Tris-acetate pH 8.0, 20 mM Mg-acetate, 7 mM Na3-PEP, 7 mM DTT, 5.5 mM ATP, 70 μM amino acids complete [Promega], 75 μg pyruvate kinase [Sigma]/ml) for 30 min at 37° C. to translate mRNAs. The preincubated supernatants were dialysed at 4° C. against 2 l of 10 mM Tris-acetate pH 8.0, 14 mM Mg-acetate, 1 mM DTT, 60 mM KCl with one buffer change using a Spectra-Por dialysis bag with a molecular weight cutoff of 3,500. The dialysate was gently concentrated by covering the dialysis bag with polyethylene glycol 8,000 powder (Sigma) at 4° C. to a protein concentration of ˜10 mg/ml. The resulting S30 extracts were flash frozen and stored in aliquots at −70° C.
(§1) The final assay volume was 59 μl. Inhibitor (3 μl dissolved in 10% DMSO), plasmid DNA (10 μl of optimal concentration in water pH 8.0) and 46 μl S30 extract [optimal concentration in 23 μl premixed with 23 μl incubation buffer (0.5 M potassium acetate, 87.5 mM Tris/acetate pH 8.0, 67.5 mM ammonium acetate, 50 μg/ml folinic acid, 5 mM DTT, 87.5 mg/ml polyethylene glycol 8000, 5 mM ATP; 1.25 mM of each CTP, GTP and UTP; 0.02 mM amino acids, 50 mM phosphoenolpyruvate trisodium salt, 2.5 mM cyclic AMP, 250 μg of each E. coli tRNA/ml) were added and incubated at 30° C. for 1 h. When using pT7-FF as a template 0.05 μl or 0.1 μl (50 U/μl) T7-RNA-Polymerase (Gibco BRL) were added to the S30 extracts used in the assay. Newly synthesized luciferase was detected by measuring bioluminescence for 60 s in a luininometer after the addition of 50 μl substrate buffer containing luciferine (20 mM Tricine/Cl pH 7.8, 2.67 mM MgSO4, 0.1 mM EDTA, 33.3 mM DTT, 0.27 mM Coenzyme A, 0.47 mM luciferine, 0.53 mM ATP).
MIC (minimal inhibitory concentration) values were determined as described in Example 4. Numbers in square brackets relate to the unit in square brackets as given in the column heading.

[2] = system: S30 extracts derived from all three Gram-positives; test: In vitro coupled T/T assay, for all three Gram-positive S30 extracts; type: biochemical, S. aureus, S. pneumoniae, E. faecalis; conditions: at high concentrations
Method: To validate the in vitro coupled T/T assay for screening of potential inhibitors of transcription and translation several antibiotics of known mode of action were tested.

S. pneumoniae 1707/4 = test: Minimum inhibitory concentration, micro broth dilution; type: cell-based
Method: (§2) MIC determinations were performed using the micro broth dilution method with an inoculum of 5×10^5 cfu/ml in BHI medium. Growth was read after 24 h of incubation at 37° C. Test compounds were dissolved in dimethyl sulfoxide and diluted to a concentration not higher than 2.5% dimethyl sulfoxide. For S. pneumoniae 1707/4 and E. faecalis 27263 16% bovine serum were added and incubated under microaerophilic conditions.

S. aureus 133 = test: as above; type: cell-based
Method: as §2

E. faecalis 27263 = test: as above; type: cell-based
Method: as §2

[3] = system: S30 extracts from S. pneumoniae 1707/4; test: Gram-positive in vitro coupled transcription/translation (T/T) assay, S. pneumoniae S30 extract; type: biochemical
Method: S. pneumoniae 1707/4 was grown overnight at 37° C. on agar plates containing 5% sheep blood under microaerophilic conditions. Cells were collected and inoculated into 4.8 l of BHI medium containing 5% bovine serum prior to cultivation at 37° C. under microaerophilic conditions for 5 h. S30 extracts were prepared as described for S. aureus 133 with some modifications. Cells were harvested and washed by centrifugation at 20,000×g for 15 min. The resulting cell pellet was resuspended in 20 ml buffer B, 3 mg lysozyme were added, incubated for 40 min at 37° C. prior to the addition of 75 μl 0.5 M DTT. The S30 sediment was washed with 8 ml buffer B and 7 ml preincubation buffer were added to the pooled supernatants.
as §1
(§3) The shape of the inhibition profiles is more or less similar for these compounds, in case of Streptomycin the lower IC50 value for S. aureus 133 compared to E. faecalis 27263 can be seen. templates pXyl-FF and pT7-FF with S30 extracts of the indicated bacterial strains. […] MIC (minimal inhibitory concentration) values were determined as described in Example 4. Numbers in square brackets relate to the unit in square brackets as given in the column heading.

[4] = system: S30 extracts from E. faecalis 27263; test: Gram-positive in vitro coupled transcription/translation (T/T) assay, E. faecalis S30 extract; type: biochemical
Method: E. faecalis 26273 was grown overnight in 250 ml BHI medium containing 2% bovine serum at 37° C. under microaerophilic conditions. The overnight culture was used to inoculate 4.8 1 BHI medium, cells were incubated at 37° C. under microaerophilic conditions with agitation (170 rpm) until an OD600 nm of ˜1.6 was reached. Preparation of S30 extracts was done as described for S. aureus with the following exceptions. Cells were harvested and washed at 7000×g at 4° C. for 12 min and resuspended in 100 ml S30-buffer B. For cell lysis 15 mg lysozyme resuspended in 1 ml S30-buffer B were added and incubated for 2 h at 37° C. with agitation. To complete cell lysis extracts were passed once through a French Press at 600 psi.
as §1, §3

[5] = template pT7-FF with T7 RNA polymerase, read-out: IC50
[6] = template pT7-FF, value in square brackets
[7] = template pXyl-FF, 50% inhibition of in vitro translation of luciferase, read-out: IC50
[8] = template pXyl-FF, value in square brackets
[9] = Streptococcus pneumoniae, 1707/4, BHI medium, 16% bovine serum, microaerophilic, 24 h, 37° C., read-out: MIC
[10] = Staphylococcus aureus, 133, BHI medium, 24 h, 37° C., read-out: MIC
[11] = Enterococcus faecalis, 27263, BHI medium, 16% bovine serum, microaerophilic, 24 h, 37° C., read-out: MIC
[12] = template pXyl-FF, read-out: IC50
[13] = BHI medium, 16% bovine serum, microaerophilic, 24 h, 37° C.
[14] = Streptococcus pneumoniae, 1707/4, 24 h
[15] = Enterococcus faecalis, 27263, 24 h

| SMILES | IC50 [1, 5] [µM] | IC50 [1, 6] [µg/mL] | IC50 [1, 7] [µM] | IC50 [1, 8] [µg/mL] | inhibition in the in vitro coupled T/T assay [2] | MIC (S. pneumoniae 1707/4; [9]) [µg/mL] | MIC (S. aureus 133; [10]) [µg/mL] | MIC (E. faecalis 27263; [11]) [µg/mL] | IC50 [3, 5] [µM] | IC50 [3, 6] [µg/mL] | IC50 [4, 5] [µM] | IC50 [4, 6] [µg/mL] | IC50 [4, 12] [µM] | IC50 [4, 8] [µg/mL] | MIC (S. pneumoniae 1707/4; [13]) [µg/mL] | MIC (S. aureus 133; BHI medium, 24 h, 37° C.) [µg/mL] | MIC (E. faecalis 27263; [13]) [µg/mL] | MIC (S. pneumoniae 1707/4; [14]) [µg/mL] | MIC (E. faecalis 27263; [15]) [µg/mL] | MIC (S. aureus 133; Staphylococcus aureus, 133, 24 h) [µg/mL] |
| --- | --- | --- | --- | --- | --- | --- | --- | --- | --- | --- | --- | --- | --- | --- | --- | --- | --- | --- | --- | --- |
| CC1(C)S[C@@H]2[C@H](NC(=O)[C@H](N)c3ccccc3)C(=O)N2[C@H]1C(=O)O [Ampicillin] | > 142 | > 50 | > 285 | > 100 | no or only weak inhibition | 0.12 (≈ 0.343 µM) | 0.4 (≈ 1.14 µM) | 3.1 (≈ 8.87 µM) | > 285 | > 100 | > 142 | > 50 | > 142 | > 50 | – | – | – | – | – | – |
| O=C(N[C@H](CO)[C@H](O)c1ccc([N+](=O)[O-])cc1)C(Cl)Cl [Chloramphenicol] | 7.4 | 2.4 | 9.3 | 3.0 | – | 4 (≈ 12.4 µM) | 4 (≈ 12.4 µM) | > 16 | 11.8 | 3.8 | 16.7 | 5.4 | 14.9 | 4.8 | – | – | – | – | – | – |
| CN(C)[C@@H]1C(=O)C(C(N)=O)=C(O)[C@@]2(O)C(=O)C3=C(O)c4c(O)cccc4[C@@](C)(O)[C@H]3C[C@@H]12 [Tetracyclin] | 0.6 | 0.25 | 0.9 | 0.4 | – | – | – | – | 0.45 | 0.2 | 2.3 | 1.0 | 1.8 | 0.8 | 0.2 (≈ 0.45 µM) | 0.05 (≈ 0.113 µM) | >100 | – | – | – |
| CC(=O)NC[C@H]1CN(c2ccc(N3CCOCC3)c(F)c2)C(=O)O1 [Linezolid] | 4.1 | 1.2 | 4.1 | 1.2 | – | 1 (≈ 2.96 µM) | 2 (≈ 5.93 µM) | 2 (≈ 5.93 µM) | 5.8 | 1.7 | 3.4 | 1.0 | 3.1 | 0.9 | – | – | – | – | – | – |
| [H]/N=C(/N)N[C@H]1[C@H](O)[C@@H](O)[C@H](O[C@@H]2O[C@@H](C)[C@](O)(C=O)[C@H]2O[C@@H]2O[C@@H](CO)[C@H](O)[C@@H](O)[C@@H]2NC)[C@@H](N/C(N)=N\[H])[C@@H]1O [Streptomycin] | 0.02 | 0.03 | 0.05 | 0.07 | – | > 100 | 6.25 (≈ 10.7 µM) | > 100 | 0.01 | 0.02 | 0.41 | 0.6 | 0.48 | 0.7 | – | – | – | – | – | – |
| COc1c(N2C[C@@H]3CCCN[C@@H]3C2)c(F)cc2c(=O)c(C(=O)O)cn(C3CC3)c12 [Moxifloxacin] | – | – | – | – | – | – | 0.06 (≈ 0.149 µM) | – | – | – | – | – | – | – | – | – | – | 0.25 (≈ 0.623 µM) | 0.5 (≈ 1.25 µM) | – |
| CC[C@H]1OC(=O)[C@H](C)[C@@H](O[C@H]2C[C@@](C)(OC)[C@@H](O)[C@H](C)O2)[C@H](C)[C@@H](O[C@@H]2O[C@H](C)C[C@H](N(C)C)[C@H]2O)[C@](C)(O)C[C@@H](C)C(=O)[C@H](C)[C@@H](O)[C@]1(C)O [Erythromycin] | 0.2 | 0.15 | 0.2 | 0.15 | – | 0.1 (≈ 0.136 µM) | 0.1 (≈ 0.136 µM) | > 100 | 0.05 | 0.04 | 0.4 | 0.3 | 0.2 | 0.15 | – | – | – | – | – | – |
| CO[C@H]1/C=C/O[C@@]2(C)Oc3c(C)c(O)c4c(O)c(c(/C=N/N5CCN(C)CC5)c(O)c4c3C2=O)NC(=O)/C(C)=C\C=C\[C@H](C)[C@H](O)[C@@H](C)[C@@H](O)[C@@H](C)[C@H](OC(C)=O)[C@@H]1C [Rifampicin] | – | – | – | – | – | < 0.05 | < 0.05 | 3.1 (≈ 3.77 µM) | – | – | – | – | – | – | – | – | – | – | – | – |
| CN[C@H](CC(C)C)C(=O)N[C@H]1C(=O)N[C@@H](CC(N)=O)C(=O)N[C@H]2C(=O)N[C@H]3C(=O)N[C@H](C(=O)N[C@H](C(=O)O)c4cc(O)cc(O)c4-c4cc3ccc4O)[C@H](O)c3ccc(c(Cl)c3)Oc3cc2cc(c3O[C@@H]2O[C@H](CO)[C@@H](O)[C@H](O)[C@H]2O[C@H]2C[C@](C)(N)[C@H](O)[C@H](C)O2)Oc2ccc(cc2Cl)[C@H]1O [Vancomycin] | > 34 | > 50 | > 67 | > 100 | no or only weak inhibition | – | – | – | > 34 | > 50 | > 34 | > 50 | > 34 | > 50 | – | – | – | 0.25 (≈ 0.173 µM) | 2 (≈ 1.38 µM) | 0.25 (≈ 0.173 µM) |
